# Source: patent US9073858B2, “Methods of targeted drug development” (priority 2010, dated 2015)
# “Also recorded” adds a separate entry of the source. Read-outs that look alike come from different tables or passages of the source.
# What was measured:
# [1] = Stability on incubation with human liver microsomes (HLM); format: in vitro ADME; conditions: percentage left after incubation with human liver microsomes for 30 minutes
# In short: (§1)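 Values are percent compound remaining after 30 min incubation with mouse or human liver microsomes.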
# [2] = Stability on incubation with mouse liver microsomes (MLM); format: in vitro ADME; conditions: for MLM % Remaining@ 30 Min: percentage left after incubation with mouse liver microsomes for 30 minutes; for stability toward liver microsome incubation: mouse and human liver microsomes (MLM, HLM)
# In short: as §1
# [3] = test system: HT-29 cells; experiment: HT-29 Cell Proliferation Assay (MTT); format: cell-based; conditions: read-out: IC50 Value (μM) HT-29 Cells
# Description: (§2) Cell proliferation is determined using the MTT assay. The MTT cell proliferation assay is a colorimetric assay system which measures the reduction of a tetrazolium component (MTT) into an insoluble formazan product by the mitochondria of viable cells. After incubation of the cells with the MTT reagent, DMSO is added to solubilize the colored crystals and the samples read at a wavelength of 560 nm. The amount of color produced is directly proportional to the number of viable cells.
# (§3) 3-(4,5-Dimethylthiazol-2-yl)-2,5-diphenyltetrazolium Bromide (MTT) dye (Aesar, cat no. L11939) was prepared at 5 mg/ml in PBS. To each well, 20 μl of MTT solution was added to existing media and mixed thoroughly with 5 mins of gentle shaking at room temperature. Plates were incubated at 37° C., 5% CO2 for approximately 2 hrs. After 2-3 hrs incubation, media was aspirated out and plates were patted dry. […] Plates were incubated at 37° C., 5% CO2 for 10 min and mix thoroughly with 5 mins of gentle shaking at room temperature. Plates were read on the PolarStar plate reader at 560 nm. Percent (%) inhibition was calculated as 100%−(OD560 nm experimental-blank)×100%/OD560 nm control-blank. Blank=wells+serum free media+0.5% DMSO. Experimental=wells+cells+treatment+0.5% DMSO. Control=wells+cells+0.5% DMSO. IC50 values were calculated in GraphPad Prism using non-linear regression curve fitting. All statistical analyses was done either in GraphPad Prism or Microsoft Excel.
# Briefly, compounds are added to cells plated in 96-well plates. […] The effect of the compounds on cell proliferation is analyzed using GraphPad Prism.
# HT-29 cells are a colon cancer cell line that is utilized to assess the ability of compounds to inhibit the proliferation of cells in tumors of the colon.
# For the HT-29 cell proliferation assay, on day 1, HT-29 cells are seeded at 3,000 cells/well in 100 μl media containing 10% FBS, 1× Pen-Strep, and 1× L-Glutamine in 96 well, tissue culture-treated plates. […] Working solutions of compounds were prepared (at […] in 100% DMSO). To 200 μl media, 20 μl of a 5× compound (diluted in plain media) was added for a final DMSO concentration of 0.5%. […] On day 5, plates were analyzed for cell growth using the MTT assay.
# [4] = test system: H1975 cells; experiment: H1975 Cell Proliferation Assay (MTT); format: cell-based; conditions: read-out: IC50 Value (μM) H1975 Cells
# Description: as §2, §3
# Briefly, compounds are added to cells plated in 96-well plates. The cells are allowed to grow for 72 hours before MTT treatment. The effect of the compounds on cell proliferation is analyzed using GraphPad Prism.
# [5] = test system: A549 cells; experiment: A549 Cell Proliferation Assay (MTT); format: cell-based
# Description: Cell proliferation is determined using the MTT assay. The MTT cell proliferation assay is a colorimetric assay system which measures the reduction of a tetrazolium component (MTT) into an insoluble formazan product by the mitochondria of viable cells. After incubation of the cells with the MTT reagent, DMSO is added to solubilize the colored crystals and the samples read at a wavelength of 560 nm. The amount of color produced is directly proportional to the number of viable cells. […] L11939) was prepared at 5 mg/ml in PBS. […] Plates were read on the PolarStar plate reader at 560 nm. […] IC50 values were calculated in GraphPad Prism using non-linear regression curve fitting. All statistical analyses was done either in GraphPad Prism or Microsoft Excel. […] Briefly, compounds are added to cells plated in 96-well plates. The cells are allowed to grow for 72 hours before MTT treatment. The effect of the compounds on cell proliferation is analyzed using GraphPad Prism. A549 cells are a non-small cell lung cancer cell line that have wild type EGFR and p53 but have point mutations in KRAS gene which transform it into an oncogene. […] SH30071.03, lot no. ATB31500), 1% Pen Strep (Gibco, cat no. […] On day 2, working solutions of compounds at 200× were prepared. […] Plates were incubated for 72 hours before analyzing them with MTT (as described above).
# [6] = Homo sapiens, A549, 72 h, read-out: IC50 Value (μM) A549 Cells
# [7] = Homo sapiens, NCI-H1975, MTT, 72 hours
# [8] = Homo sapiens, A549, read-out: IC50, cell proliferation in A549 or H1975 cells
# [9] = Homo sapiens, HT-29, MTT, 72 hrs
# [10] = Homo sapiens, A549, MTT, 72 hours, read-out: IC50 Value (μM) A549 Cells
SMILES,HLM % Remaining@ 30 Min [1],MLM % Remaining@ 30 Min [2],"IC50 ([3]; Homo sapiens, HT-29, 72 h)","IC50 ([4]; Homo sapiens, NCI-H1975, 72 h)","IC50 [5, 6]",further results
Cc1cc(NC(c2ccc(Cl)c(C(F)(F)F)c2)c2ccc3cccnc3c2O)ncc1Cl (centres unmarked) [AD4-13108],93%,25%,3.3 µM,0.3 µM,0.14 µM,–
Oc1c(C(Nc2ccc(F)cn2)c2cc(Cl)cc(Cl)c2Cl)ccc2cccnc12 (centres unmarked) [AD4-13111],92%,87%,–,0.37 µM,0.14 µM,IC50 [3]: 8.9 µM
Oc1c(C(Nc2ncc(Cl)cc2F)c2ccc(Cl)cc2Cl)ccc2cccnc12 (centres unmarked) [AD4-13143],96%,76%,1.1 µM,0.13 µM,0.13 µM,–
Cc1cc(Cl)cnc1NC(c1ccc(Cl)cc1Cl)c1cc(Cl)c2cccnc2c1O (centres unmarked) [AD4-13212],–,–,3.5 µM,–,0.13 µM,"IC50 [4, 7]: 0.16 µM"
Oc1c(C(Nc2ccc(Cl)cn2)c2cccc(Cl)c2Cl)ccc2cccnc12 (centres unmarked) [AD4-13086],72%,37%,1.2 µM,0.15 µM,0.16 µM,–
Cc1cc(Cl)cnc1NC(c1cc(Cl)cc(Cl)c1)c1ccc2cccnc2c1O (centres unmarked) [AD4-13131],100%,83%,0.92 µM,0.1 µM,0.1 µM,"IC50 [5, 8]: ≤ 0.1 µM"
Cc1cc(Cl)cnc1NC(c1ccc(Cl)c(Cl)c1)c1ccc2cccnc2c1O (centres unmarked) [AD4-13119],–,–,1.5 µM,0.12 µM,0.18 µM,–
Cc1cc(Cl)cnc1NC(c1cc(Cl)cc(Cl)c1Cl)c1ccc2cccnc2c1O (centres unmarked) [AD4-13167],–,–,1.5 µM,0.31 µM,0.1 µM,–
Cc1ccnc(NC(c2ccc3cccnc3c2O)c2c(F)c(F)c(OCC(F)(F)F)c(F)c2F)c1 (centres unmarked) [AD4-13092],–,–,3.9 µM,0.21 µM,0.16 µM,–
Oc1c(C(Nc2ncc(F)cc2F)c2c(Cl)cccc2Cl)ccc2cccnc12 (centres unmarked) [AD4-13138],–,–,1.1 µM,0.3 µM,0.17 µM,–
Cc1cc(Cl)cnc1NC(c1ccc(C(F)(F)F)cc1)c1ccc2cccnc2c1O (centres unmarked) [AD4-13041],100%,81%,1.1 µM,0.17 µM,0.11 µM,stability toward liver microsome incubation [2]: increased stability
Cc1cc(Cl)cnc1NC(c1ccc(Cl)cc1)c1ccc2cccnc2c1O (centres unmarked) [AD4-13154],–,–,0.76 µM,0.15 µM,0.17 µM,–
Oc1c(C(Nc2cc(Cl)c(Cl)cn2)c2ccc(Cl)c(Cl)c2)ccc2cccnc12 (centres unmarked) [AD4-13177],86%,86%,1.5 µM,0.27 µM,0.14 µM,–
Cc1cc(Cl)cnc1NC(c1ccc(C(F)(F)F)cc1F)c1ccc2cccnc2c1O (centres unmarked) [AD4-13042],101%,99%,1.3 µM,0.13 µM,0.11 µM,stability toward liver microsome incubation [2]: increased stability
Cc1cc(Cl)cnc1NC(c1cccc(Cl)c1)c1ccc2cccnc2c1O (centres unmarked) [AD4-13159],–,–,1.2 µM,0.13 µM,0.11 µM,–
Cc1nc(NC(c2ccc(Cl)cc2Cl)c2ccc3cccnc3c2O)c(Cl)cc1Cl (centres unmarked) [AD4-13206],99%,93%,2.1 µM,0.36 µM,0.074 µM,"stability toward liver microsome incubation [2]: increased stability; also recorded: good stability; IC50 [5, 8]: ≤ 0.1 µM"

SMILES,HLM % Remaining@ 30 Min [1],MLM % Remaining@ 30 Min [2],"IC50 ([3]; Homo sapiens, HT-29, 72 h)","IC50 ([4]; Homo sapiens, NCI-H1975, 72 h)","IC50 [5, 6]",further results
Cc1cc(Cl)ccc1NC(c1ccc(Cl)c(Cl)c1)c1ccc2cccnc2c1O (centres unmarked) [AD4-13204],–,–,–,–,–,"IC50 [3, 9]: 4.5 µM; IC50 [4, 7]: 1.4 µM; IC50 [5, 10]: 0.19 µM"
Oc1c(C(Nc2cc(Cl)c(Cl)cn2)c2cccc(Cl)c2Cl)ccc2cccnc12 (centres unmarked) [AD4-13172],100%,80%,1.3 µM,0.15 µM,0.14 µM,–
Oc1c(C(Nc2ccc(F)cn2)c2cc(Cl)cc(Cl)c2Cl)ccc2cccnc12 (centres unmarked) [AD4-13132],98%,66%,–,–,–,IC50 [3]: 1.6 µM; IC50 [4]: 0.31 µM; IC50 ([5]; read-out: IC50 Value (μM) A549 Cells): 0.17 µM
Cc1cc(Cl)cnc1NC(c1ccc2cccnc2c1O)c1c(Cl)cccc1Cl (centres unmarked) [AD4-13142],–,–,3.1 µM,0.95 µM,0.14 µM,–
Cc1nc(NC(c2cccc(Cl)c2Cl)c2ccc3cccnc3c2O)c(Cl)cc1Cl (centres unmarked) [AD4-13211],–,–,2 µM,0.16 µM,0.082 µM,"IC50 [5, 8]: ≤ 0.1 µM"
Oc1c(C(Nc2ncc(Cl)cc2F)c2ccc(Cl)c(Cl)c2)ccc2cccnc12 (centres unmarked) [AD4-13150],100%,85%,1.9 µM,0.45 µM,0.14 µM,–
Cc1cc(NC(c2ccc3cccnc3c2O)c2c(Cl)cccc2Cl)ncc1Cl (centres unmarked) [AD4-13148],–,–,1.1 µM,0.31 µM,0.13 µM,–
Cc1cc(NC(c2cccc(Cl)c2Cl)c2ccc3cccnc3c2O)ncc1Cl (centres unmarked) [AD4-13153],96%,62%,0.79 µM,0.19 µM,0.19 µM,–
Oc1c(C(Nc2cc(Cl)c(Cl)cn2)c2ccc(Cl)cc2)ccc2cccnc12 (centres unmarked) [AD4-13187],–,–,1.3 µM,0.26 µM,0.15 µM,–
Cc1cc(NC(c2ccc(C(F)(F)F)cc2)c2ccc3cccnc3c2O)ncc1Cl (centres unmarked) [AD4-13121],–,–,1.8 µM,0.33 µM,0.18 µM,–
Cc1cccc(NC(c2ccc(Cl)c(Cl)c2)c2cc(Cl)c3cccnc3c2O)n1 (centres unmarked) [AD4-13081],–,–,–,–,–,"IC50 [3, 9]: 6.2 µM; IC50 [4, 7]: 0.33 µM; IC50 [5, 10]: 0.17 µM"
Cc1cc(Cl)cnc1NC(c1ccc2cccnc2c1O)c1c(F)cccc1Cl (centres unmarked) [AD4-13135],–,–,0.79 µM,0.21 µM,0.18 µM,–
Cc1cc(NC(c2ccc(C(F)(F)F)cc2C(F)(F)F)c2ccc3cccnc3c2O)ncc1Cl (centres unmarked) [AD4-13124],–,–,1.5 µM,0.97 µM,0.1 µM,"IC50 [5, 8]: ≤ 0.1 µM"
Oc1c(C(Nc2ccc(Cl)cn2)c2cc(Cl)ccc2Cl)ccc2cccnc12 (centres unmarked) [AD4-13095],88%,60%,5.4 µM,0.44 µM,0.11 µM,–
Oc1c(C(Nc2cc(Cl)c(Cl)cn2)c2cccc(Cl)c2)ccc2cccnc12 (centres unmarked) [AD4-13188],–,–,0.86 µM,0.28 µM,0.14 µM,–
Oc1c(C(Nc2ncc(F)cc2F)c2ccc(Cl)cc2Cl)ccc2cccnc12 (centres unmarked) [AD4-13175],–,–,2 µM,3.8 µM,0.17 µM,–
